These results are taken from patent US4493843A, “Indole and indoline carboxylic acid compounds and method of use” (May & Baker Limited, priority 1980, dated 1985).

Read-outs that look alike come from different tables or passages of the source.

By inhibition is commonly meant the relative decrease from the control value, in per cent.

Assay [1] concerns serum cholesterol and serum triglycerides. Put plainly: Hypolipidaemic activity in rats (compound in diet, last 7 of 10 days). The format is in vivo, Male Wistar rats. Particulars: Rattus norvegicus, po, 168 h, 7 days; for change in vivo at 0.03 % strength: 0.03 % w/w dose in diet; for change in vivo at 0.2 % strength: 0.2 % w/w dose in diet; for change in vivo at 0.1 % strength: 0.1 % w/w dose in diet. The method in brief: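 Male Wistar rats (120–150 g, groups of eight) on powdered diet for 10 days, with test compound mixed into the diet (oral) for the last 7 days. On day 10, cardiac blood was taken and serum cholesterol and triglycerides measured by autoanalyser. Percentage reductions were calculated against simultaneous untreated-diet controls for each compound concentration.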

Assay [2] concerns Smooth muscle cells from explants of pig thoracic aorta. Put plainly: Aortic smooth muscle cell proliferation inhibiting activity. It counts as cell-based. Particulars: Sus scrofa, 168 h, 5 μg/ml medium; six or seven day incubation; each value mean of four dishes. The protocol:
Aortic smooth muscle cell proliferation inhibiting activity
Smooth muscle cells were grown in culture from explants of pig thoracic aorta, using Dulbecco's Modified Eagles (DME) Medium containing 20% foetal calf serum (FCS) and antibiotics. The cells were incubated at 37° C. in an atmosphere of 95% air and 5% carbon dioxide. At confluency the cells were routinely subcultured by trypsinising and replating at approximately one third of their confluent density in DME Medium containing 10% FCS and antibiotics.
The smooth muscle cells were plated out at densities of 100,000-200,000 cells per 35×10 mm Falcon dish in 2 ml DME Medium containing 10% FCS and antibiotics. After 24 hours, when the cells had attached to the dishes, the medium was replaced with 2 ml DME Medium containing 1% FCS and antibiotics. The cultures were incubated for a further three days to allow the cells to become quiescent (i.e. no longer undergoing cell division). The medium was then replaced by 2 ml control or test medium. The test medium consisted of DME Medium (containing 10% FCS and antibiotics) and the compound to be tested at a concentration of 5 μg/ml medium. The compounds were pre-dissolved in acetone such that the final concentration of acetone in the medium was 0.2% (v/v). The control medium consisted of DME Medium (containing 10% FCS and antibiotics) and acetone at 0.2% (v/v) concentration. After three days incubation in test or control medium, the medium was replaced with fresh test or control medium and the cells incubated for a further three or four days. At the end of the six or seven day incubation period cell numbers were determined by trypsinising the cells and counting the cell suspension in a Coulter counter.
All results in Table II hereafter represent the mean value for four dishes of cells. Percentage inhibition of proliferation was calculated using the following formula: [formula] where S=Mean cell number per dish at start of experiment (upon addition of control or test medium).
T=Mean cell number per dish in test cultures at completion of experiment.
C=Mean cell number per dish in control cultures at completion of experiment.

A further assay deals with serum glucose. Put plainly: Hypoglycaemic activity in diabetic mice. The format is in vivo, Diabetic mice (strain C 57, black, MRI derived Obese/Obese). Particulars: 200 mg/kg body weight per day orally for 3 days; 3 hours after last dose. The protocol: Hypoglycaemic Activity in Diabetic Mice
Diabetic mice (strain C 57, black, MRI derived Obese/Obese) of either sex each weighting between 45 and 70 g were given the test compound orally at a dose of 200 mg/kg body weight per day for 3 days. Three hours after the last dose the animals were weighed, anaesthetised with carbon dioxide and bled by cardiac puncture.
The serum glucose levels were assessed by the glucose-oxidase method of God-Perid.
Control groups (given doses of unmedicated tragacanth mucilage) were included with each test.
The percentage reduction in the concentration of serum glucose was calculated by comparison with the simultaneous controls, for each of the test compounds used.

[3] abbreviates: read-out: % change in serum cholesterol compared with control.
The mark [4] stands for this setting: read-out: % change in serum triglycerides compared with control.

Consider `CCCCCCCCCCCCCCCc1cc2cc(C(=O)O)ccc2[nH]1` [Compound G, 2-(n-pentadecyl)indole-5-carboxylic acid], for which the change in vivo at 0.03 % strength was -7% in assay [1] (setting [3]) and -41% in assay [1] (setting [4]). In addition, in assay [2], the inhibition at 5 µg/mL was found to be 51%.
Take `CCCCCCCCCCCCCCCCc1cc2ccc(C(=O)O)cc2[nH]1` [Compound TT, 2-(n-hexadecyl)indole-6-carboxylic acid]: the change in vivo at 0.2 % strength is -8% in assay [1] (setting [3]) and -6% in assay [1] (setting [4]). The inhibition at 5 µg/mL in assay [2] is 61%.
Regarding `CCCCCCCCCCCCCCc1cc2cc(C(=O)O)ccc2[nH]1` [Compound NN, 2-(n-tetradecyl)indole-5-carboxylic acid], the change in vivo at 0.2 % strength in assay [1] (setting [3]) is -39%; in assay [1] (setting [4]), -73%. Further, in assay [2], the inhibition at 5 µg/mL came out at 76%.
With `CCCCCCCCCCCc1[nH]c2ccc(C(=O)O)cc2c1C` [Compound CQQ, 2-(n-undecyl)-3-methylindole-5-carboxylic acid], the “% change in serum glucose compared with control” value with serum glucose was -40%.
With `CCCCCCCc1cc2cc(C(=O)OC)ccc2[nH]1` [Compound ASS, methyl 2-(n-heptyl)indole-5-carboxylate], the figures for the change in vivo at 0.2 % strength in assay [1] (setting [3]) and in assay [1] (setting [4]) were -2% and -20%, respectively. Moreover, the inhibition at 5 µg/mL in assay [2] was 36%.
With `CCCCCCCc1cc2ccc(C(=O)OCC)cc2[nH]1` [Compound AJJ, ethyl 2-(n-heptyl)indole-6-carboxylate], the change in vivo at 0.2 % strength is -8% in assay [1] (setting [3]) and 6% in assay [1] (setting [4]). This molecule showed an inhibition at 5 µg/mL in assay [2] of 45%.
Turning to `CCCCCCCCCCCCCCCCCCc1cc2cc(C(=O)O)ccc2[nH]1` [Compound T, 2-(n-octadecyl)indole-5-carboxylic acid], in assay [1] (setting [3]), the change in vivo at 0.1 % strength is -45% and the change in vivo at 0.2 % strength is -43%. Also, in assay [1] (setting [4]), the change in vivo at 0.1 % strength is -78% and the change in vivo at 0.2 % strength was -67%. This molecule returned an inhibition at 5 µg/mL in assay [2] of 30%.
In the case of `CCCCCCCCCCCC1CNc2cc(C(=O)O)ccc21` (racemic) [Compound BXX, (RS)-3-(n-undecyl)indoline-6-carboxylic acid], the change in vivo at 0.2 % strength in assay [1] (setting [3]) was -10%; in assay [1] (setting [4]), -39%. Moreover, the “% change in serum glucose compared with control” value in the assay on serum glucose is -9%.
